Measured values taken from patent publication US20230293599A1, “BACTERIAL COMPOSITIONS WITH ANTI-INFLAMMATORY ACTIVITY” (Universiteit Gent, priority 2020, published 2023).
Read-outs that look alike come from different tables or passages of the source. Residues, ends and D or L forms follow the SMILES beside them.

Tests used:
P. aeruginosa = assay: Biolog Phenotype Microarray PM1-2 growth on carbon sources; format: cell-based, Pseudomonas aeruginosa
Description: (§1) Using Phenotype Microarray (PM) panels (Biolog), the influence of 190 carbon sources on the growth of the potential probiotic species R. mucilaginosa, R. dentocariosa, R. gilardii, G. haemolysans, and common respiratory pathogens P. aeruginosa, and S. aureus was determined. PM1 and PM2 panels (Biolog) were inoculated according to the manufacturer's instructions. Growth curves were generated for 35 hours by measuring the absorbance at 590 nm using an EnVision (Perkin Elmer) plate reader.

S. aureus = format: cell-based, Staphylococcus aureus
Description: as §1

R. gilardii = assay: Biolog Phenotype Microarray PM1-2 growth on carbon sources; format: cell-based, Roseomonas gilardii
Description: as §1

R. mucilaginosa = assay: as above; format: cell-based, Rothia mucilaginosa; settings: for AUC of growth curve, R. mucilaginosa: 35 hours, absorbance 590 nm, n = 1, cells without values AUC < 50; for growth of R. mucilaginosa on the carbon source (in words): AUC lower than 50 = not supporting growth
Description: as §1

R. dentocariosa = assay: as above; format: cell-based, Rothia dentocariosa
Description: as §1

[1] = 35 hours, absorbance 590 nm, n = 1, cells without values AUC < 50
[2] = AUC lower than 50 = not supporting growth

Compound	AUC of growth curve, P. aeruginosa (P. aeruginosa; [1])	AUC of growth curve, S. aureus (S. aureus)	other results
O=C(O)CC(O)C(=O)O (racemic) [D,L-Malic Acid]	852.7	696.0	AUC of growth curve, R. gilardii (R. gilardii; [1]): 169.8
O=P(O)(O)OCC(O)CO (racemic) [D,L-α-Glycerol-Phosphate]	114.5	–	growth of P. aeruginosa on the carbon source (in words) (P. aeruginosa; [2]): not or only minimally supporting growth; growth of S. aureus on the carbon source (in words) (S. aureus): not or only minimally supporting growth; AUC of growth curve, R. mucilaginosa (R. mucilaginosa): 247.7; growth of R. mucilaginosa on the carbon source (in words) (R. mucilaginosa): enable growth; AUC of growth curve, R. dentocariosa (R. dentocariosa; [1]): 271.8; growth of R. dentocariosa on the carbon source (in words) (R. dentocariosa; [2]): enable growth
OC[C@H]1O[C@@H](Oc2ccc(O)cc2)[C@H](O)[C@@H](O)[C@@H]1O [Arbutin]	–	282.2	AUC of growth curve, R. dentocariosa (R. dentocariosa; [1]): 55.2
O=C(O)CC(Br)C(=O)O (stereo not drawn) [Bromo Succinic Acid]	102.6	430.7	AUC of growth curve, R. dentocariosa (R. dentocariosa; [1]): 808.4; AUC of growth curve, R. gilardii (R. gilardii; [1]): 67.3
O=C(O)CC(O)(CC(=O)O)C(=O)O [Citric Acid]	846.5	169.0	AUC of growth curve, R. gilardii (R. gilardii; [1]): 156.2
C[C@@H](O)[C@H](O)[C@H](O)[C@@H](O)C=O [D-Fucose]	91.3	138.3	AUC of growth curve, R. dentocariosa (R. dentocariosa; [1]): 119.9; AUC of growth curve, R. gilardii (R. gilardii; [1]): 71.4
O=C[C@H](O)[C@@H](O)[C@@H](O)[C@H](O)C(=O)O [D-Galacturonic Acid]	598.2	165.1	AUC of growth curve, R. dentocariosa (R. dentocariosa; [1]): 57.0
OC[C@H]1O[C@@](CO)(O[C@H]2O[C@H](CO)[C@@H](O)[C@H](O)[C@H]2O)[C@@H](O[C@H]2O[C@H](CO)[C@@H](O)[C@H](O)[C@H]2O)[C@@H]1O [D-Melezitose]	–	969.2	AUC of growth curve, R. dentocariosa (R. dentocariosa; [1]): 57.2
OC[C@H]1O[C@H](OCC2O[C@@H](O)[C@H](O)[C@@H](O)[C@@H]2O)[C@H](O)[C@@H](O)[C@H]1O (stereo partly drawn) [D-Melibiose]	–	220.2	AUC of growth curve, R. dentocariosa (R. dentocariosa; [1]): 249.8; AUC of growth curve, R. gilardii (R. gilardii; [1]): 86.9
OC[C@@H](O)[C@@H](O)[C@H](O)[C@@H](O)CO [D-Sorbitol]	129.8	412.2	–
O=C(CO)[C@@H](O)[C@@H](O)[C@H](O)CO [D-Tagatose]	–	633.2	AUC of growth curve, P. aeruginosa (P. aeruginosa): 574.0; AUC of growth curve, R. dentocariosa (R. dentocariosa): 117.7; AUC of growth curve, R. gilardii (R. gilardii): 75.2
OC[C@H]1O[C@H](O[C@H]2O[C@H](CO)[C@@H](O)[C@H](O)[C@H]2O)[C@H](O)[C@@H](O)[C@@H]1O [D-Trehalose]	–	852.9	growth of P. aeruginosa on the carbon source (in words) (P. aeruginosa; [2]): did not support growth; AUC of growth curve, R. mucilaginosa (R. mucilaginosa): 572.3; growth of R. mucilaginosa on the carbon source (in words) (R. mucilaginosa): allowed growth; AUC of growth curve, R. dentocariosa (R. dentocariosa; [1]): 937.7; growth of R. dentocariosa on the carbon source (in words) (R. dentocariosa; [2]): allowed growth
O=C(O)/C=C/C(=O)O [Fumaric Acid]	1085.5	687.9	AUC of growth curve, R. dentocariosa (R. dentocariosa; [1]): 202.9
NCC(=O)O [Glycine]	101.6	743.1	–
NCC(=O)N[C@@H](CC(=O)O)C(=O)O [Glycyl-L-Aspartic Acid] (H-Gly-Asp-OH)	–	840.3	AUC of growth curve, P. aeruginosa (P. aeruginosa): 538.0
NCC(=O)N1CCC[C@H]1C(=O)O [Glycyl-L-Proline] (H-Gly-Pro-OH)	–	292.4	AUC of growth curve, P. aeruginosa (P. aeruginosa): 387.4; AUC of growth curve, R. dentocariosa (R. dentocariosa): 72.5
OC[C@H]1O[C@@H](n2cnc3c(O)ncnc32)[C@H](O)[C@@H]1O [Inosine]	141.0	1075.0	–
C[C@H](N)C(=O)O [L-Alanine]	775.3	564.0	–
N=C(N)NCCC[C@H](N)C(=O)O [L-Arginine]	–	816.4	AUC of growth curve, P. aeruginosa (P. aeruginosa): 285.4
NC(=O)C[C@H](N)C(=O)O [L-Asparagine]	1032.0	684.0	–
N[C@@H](CC(=O)O)C(=O)O [L-Aspartic Acid]	730.7	464.1	–
O=C1O[C@H]([C@@H](O)CO)[C@@H](O)[C@@H]1O [L-Galactonic Acid γ-Lactone]	–	176.4	AUC of growth curve, P. aeruginosa (P. aeruginosa): 549.8; AUC of growth curve, R. gilardii (R. gilardii): 212.2
N[C@@H](CCC(=O)O)C(=O)O [L-Glutamic Acid]	788.3	–	AUC of growth curve, S. aureus (S. aureus; [1]): 644.7
NC(=O)CC[C@H](N)C(=O)O [L-Glutamine]	987.8	697.1	–

Compound	AUC of growth curve, P. aeruginosa (P. aeruginosa; [1])	AUC of growth curve, S. aureus (S. aureus)	other results
N[C@@H](Cc1c[nH]cn1)C(=O)O [L-Histidine]	773.2	467.3	–
N[C@@H](CCO)C(=O)O [L-Homoserine]	82.5	194.1	–
CC[C@H](C)[C@H](N)C(=O)O [L-Isoleucine]	86.2	113.8	–
CC(C)C[C@H](N)C(=O)O [L-Leucine]	125.5	231.5	–
CSCC[C@H](N)C(=O)O [L-Methionine]	52.6	254.7	–
O=C(O)[C@@H]1CCCN1 [L-Proline]	425.7	567.9	AUC of growth curve, R. mucilaginosa (R. mucilaginosa): 268.5; AUC of growth curve, R. dentocariosa (R. dentocariosa; [1]): 1049.5
O=C1CC[C@@H](C(=O)O)N1 [L-Pyroglutamic Acid]	1438.7	427.9	–
O=C(CO)[C@@H](O)[C@H](O)[C@@H](O)CO [L-Sorbose]	–	458.7	AUC of growth curve, P. aeruginosa (P. aeruginosa): 94.3; AUC of growth curve, R. dentocariosa (R. dentocariosa): 52.1
O=C(O)CC(=O)O [Malonic Acid]	234.7	470.9	–
OC[C@H]1O[C@H](O[C@H]2[C@H](O)[C@@H](O)[C@H](O)O[C@@H]2CO)[C@H](O)[C@@H](O)[C@@H]1O [Maltose]	–	867.8	growth of P. aeruginosa on the carbon source (in words) (P. aeruginosa; [2]): did not support growth; AUC of growth curve, R. mucilaginosa (R. mucilaginosa): 1052.6; growth of R. mucilaginosa on the carbon source (in words) (R. mucilaginosa): allowed growth; AUC of growth curve, R. dentocariosa (R. dentocariosa; [1]): 977.1; growth of R. dentocariosa on the carbon source (in words) (R. dentocariosa; [2]): allowed growth
O=C(O)[C@@H](O)[C@H](O)[C@H](O)[C@@H](O)C(=O)O [Mucic Acid]	–	162.5	AUC of growth curve, R. mucilaginosa (R. mucilaginosa): 53.4
CC(=O)N[C@@H](CCC(=O)O)C(=O)O [N-Acetyl-L-Glutamic Acid]	272.5	184.1	–
O=C(O)C(=O)C(C(=O)O)C(O)C(=O)O (stereo not drawn) [Oxalomalic Acid]	–	691.0	growth of P. aeruginosa on the carbon source (in words) (P. aeruginosa): did not support growth; AUC of growth curve, R. dentocariosa (R. dentocariosa): 169.4; growth of R. dentocariosa on the carbon source (in words) (R. dentocariosa): enabled growth; AUC of growth curve, R. gilardii (R. gilardii): 219.2; growth of R. gilardii on the carbon source (in words) (R. gilardii): enabled growth
OC[C@H]1O[C@H](OC[C@H]2OC(O)(CO)[C@@H](O)[C@@H]2O)[C@H](O)[C@@H](O)[C@@H]1O (stereo partly drawn) [Palatinose]	514.7	763.7	AUC of growth curve, R. mucilaginosa (R. mucilaginosa): 129.4; AUC of growth curve, R. dentocariosa (R. dentocariosa; [1]): 197.4
CCC(=O)O [Propionic Acid]	152.1	235.6	AUC of growth curve, R. gilardii (R. gilardii; [1]): 58.6
NCCCCN [Putrescine]	656.8	274.2	–
OCc1ccccc1O[C@@H]1O[C@H](CO)[C@@H](O)[C@H](O)[C@H]1O [Salicin]	–	146.2	growth of P. aeruginosa on the carbon source (in words) (P. aeruginosa; [2]): did not support growth; AUC of growth curve, R. mucilaginosa (R. mucilaginosa): 74.0; AUC of growth curve, R. dentocariosa (R. dentocariosa; [1]): 222.9; growth of R. dentocariosa on the carbon source (in words) (R. dentocariosa; [2]): stimulated only the growth
CCC(C)N (stereo not drawn) [Sec-Butylamine]	–	–	AUC of growth curve, R. mucilaginosa (R. mucilaginosa): 67.6
NC(=O)CCC(=O)O [Succinamic Acid]	53.6	490.3	–
O=C(O)CCC(=O)O [Succinic Acid]	348.4	626.1	AUC of growth curve, R. dentocariosa (R. dentocariosa; [1]): 241.8; AUC of growth curve, R. gilardii (R. gilardii; [1]): 125.7
OC[C@H]1O[C@@](CO)(O[C@H]2O[C@H](CO)[C@@H](O)[C@H](O)[C@H]2O)[C@@H](O)[C@@H]1O [Sucrose]	–	–	growth of P. aeruginosa on the carbon source (in words) (P. aeruginosa; [2]): did not support growth; growth of R. mucilaginosa on the carbon source (in words) (R. mucilaginosa): allowed growth; growth of R. dentocariosa on the carbon source (in words) (R. dentocariosa; [2]): allowed growth
O=C(O)CC(CC(=O)O)C(=O)O [Tricarballylic Acid]	510.7	177.0	–
COC1OC(CO)C(O)C(O)C1O [α-Methyl-D-Galactoside]	–	229.9	AUC of growth curve, R. gilardii (R. gilardii; [1]): 73.3
